Data from patent US20070189973A1, “Contrast medium comprising liposomes containing hydrophobic chelate compound” (priority 2003, published 2007).

System: vascular smooth muscle cells
Test: Uptake amount of chelate compound by vascular smooth muscle cells (mixed culture with macrophages)
Format: cell-based
Conditions: liposome preparation PC: 50 nmol+PS: 50 nmol+Compound 1: 75 nmol; mixed culture system of vascular smooth muscle cells and macrophage; 37° C., 5% CO2, 24 hours
Protocol: Uptake Amount of Chelate Compound by Vascular Smooth Muscle Cells
Dipalmitoyl-PC (Funakoshi, No. 1201-41-0225) and dipalmitoyl-PS (Funakoshi, No. 1201-42-0237) at the ratio shown below were dissolved in chloroform together with a hydrophobic chelate compound (Compound 1 specifically shown above as a preferred compound) in an eggplant-shaped flask according to the method described in J. Med. Chem., 25 (12), 1500 (1982) to form a uniform solution. Then, the solvent was evaporated under reduced pressure to form a thin membrane on the bottom of the flask bottom. This thin membrane was dried in vacuum, then added with an appropriate amount of 0.9% physiological saline (Hikari Pharmaceutical, No. 512) and subjected to ultrasonication (No. 3542 probe type oscillator, Branson, 0.1 mW) for 5 minutes to obtain a uniform liposome dispersion. The diameters of the liposomes in the resulting dispersion were measured by using WBC analyzer (A-1042, Nihon Kohden). […] The liposome preparation mentioned below, which was produced by the above method, was added to a mixed culture system of vascular smooth muscle cells and macrophage described in International Publication WO 01/82977. The cells were cultured at 37° C. under 5% CO2 for 24 hours, and the amount of the chelate compound taken up into the vascular smooth muscle cells was quantified.
PC: 50 nmol+PS: 50 nmol+Compound 1: 75 nmol […]

## CC(C)CCCC(C)C1CCC2C3C=CC4CC(OC(=O)COC(=O)CN(CCN(CC(=O)O)CC(=O)O)CCN(CC(=O)O)CC(=O)O)CCC4(C)C3CCC12C (stereo not shown) [Compound 1]
  Amount taken up by vascular smooth muscle cells: 20 nmol/mg protein
